Test systems include 786-0 renal; A498 renal; HT29 colon; M14 melanoma; NCI/ADR-RES ovarian; SF-268 CNS; SF-539 CNS; SK-MEL-5 melanoma; TK-10 renal; U251 CNS.
Common to all, as to experiment: DTP human tumour cell line panel, 48 h

“And” between values parts separate entries of the source, which are not always exact repeats. Equal entries are not always repeated.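 A five-concentration, 48-hour dose response in 96-well plates underlies each endpoint, interpolated linearly between surrounding concentrations. GI50 = concentration required for 50% inhibition of growth. The concentration for full growth arrest is given as TGI.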

As to `CCCCCCCCCCCCCCCCOP(=O)([O-])OCC[N+](C)(C)C`, the GI50 is 2330 nM with 786-0 renal; 1130 nM in the experiment on A498 renal; 390 nM in the experiment with HT29 colon; 1560 nM with M14 melanoma; 11.1 µM with NCI/ADR-RES ovarian; 2930 nM in the experiment on SF-268 CNS. In addition, the GI50 in the experiment on SF-539 CNS was 2340 nM; with SK-MEL-5 melanoma, 1920 nM; with TK-10 renal, 182 nM; in the experiment with U251 CNS, 1050 nM. For the same compound, the concentration for total growth inhibition (TGI) in the experiment on 786-0 renal is 7.76 µM and 25.4 µM; in the experiment with A498 renal, 5.24 µM and 37.4 µM; in the experiment with NCI/ADR-RES ovarian, 23.2 µM and 58.7 µM; with SF-268 CNS, 13.7 µM and 52.7 µM; in the experiment with SF-539 CNS, 5.86 µM and 52.9 µM; in the experiment on SK-MEL-5 melanoma, 5.35 µM and 52 µM.
In the case of `O=c1oc2cc(OC/C(=N/O)c3ccc(F)cc3)ccc2c2ccccc12`, the GI50 in the experiment with 786-0 renal was 11700 nM; with A498 renal, 22000 nM; with HT29 colon, 19400 nM; with M14 melanoma, 19200 nM; with NCI/ADR-RES ovarian it was 18 µM; in the experiment on SF-268 CNS, 21100 nM. For the same compound, the GI50 in the experiment on SF-539 CNS is 20100 nM; in the experiment with SK-MEL-5 melanoma it was 20900 nM; with TK-10 renal, 27000 nM; in the experiment with U251 CNS, 20900 nM. Moreover, the TGI in the experiment with 786-0 renal amounted to 25 µM; in the experiment with A498 renal it was 37.7 µM; with HT29 colon, 43.2 µM; with M14 melanoma, 33.7 µM; in the experiment with NCI/ADR-RES ovarian it was 36.2 µM; with SF-268 CNS, 42.3 µM. The TGI turned out to be 36.4 µM with SF-539 CNS, 36.3 µM with SK-MEL-5 melanoma, 81.2 µM in the experiment on TK-10 renal and 45.5 µM in the experiment with U251 CNS.
Regarding `CCOC(=O)C(=CNC(=S)N=Nc1c(O)[nH]c2ccccc12)C(=O)OCC`, the TGI in the experiment on 786-0 renal, with A498 renal, in the experiment with HT29 colon, in the experiment with M14 melanoma, in the experiment on NCI/ADR-RES ovarian and in the experiment with SF-268 CNS was greater than 100 µM in each case. Further, the TGI with SF-539 CNS, with SK-MEL-5 melanoma, in the experiment with TK-10 renal and in the experiment on U251 CNS was greater than 100 µM each time.
As to `O=C(CI)Nc1ccc(O)c2ccccc12`, the GI50 with 786-0 renal is 1730 nM; with A498 renal it was 2370 nM; in the experiment with HT29 colon, 504 nM; in the experiment on M14 melanoma it was 1060 nM; in the experiment on NCI/ADR-RES ovarian, 2.97 µM; in the experiment with SF-268 CNS it was 2030 nM. In addition, the GI50 was 1800 nM in the experiment with SF-539 CNS, 1630 nM in the experiment on SK-MEL-5 melanoma, 1720 nM with TK-10 renal and 1570 nM in the experiment on U251 CNS. Also, the TGI in the experiment with 786-0 renal worked out at 3.27 µM; in the experiment with A498 renal, 9.12 µM; in the experiment with HT29 colon it was 2.8 µM; in the experiment on M14 melanoma it was 2.63 µM; with NCI/ADR-RES ovarian, 14.8 µM; with SF-268 CNS it was 5.56 µM. The total growth inhibition concentration (TGI) in the experiment on SF-539 CNS was found to be 4.47 µM; in the experiment on SK-MEL-5 melanoma, 3.08 µM; in the experiment with TK-10 renal, 3.75 µM; in the experiment on U251 CNS, 3.11 µM.
As to `Cc1[nH]c(N)nc(=S)c1CCC(=O)O`, the TGI with 786-0 renal, in the experiment on A498 renal, with HT29 colon, in the experiment on M14 melanoma, in the experiment on NCI/ADR-RES ovarian and in the experiment on SF-268 CNS was greater than 100 µM throughout. The TGI in the experiment on SF-539 CNS, with SK-MEL-5 melanoma, in the experiment with TK-10 renal and in the experiment with U251 CNS was greater than 100 µM in each case.
For the compound `COc1ccc2c(c1OC)C(C(Cl)(Cl)Cl)N1CCc3cc4c(cc3C1=C2)OCO4` (stereo unspecified), the total growth inhibition concentration (TGI) with 786-0 renal is 55.5 µM; with A498 renal it was greater than 100 µM; in the experiment on HT29 colon it was 68.4 µM; with M14 melanoma, greater than 100 µM; in the experiment with NCI/ADR-RES ovarian it was greater than 100 µM; with SF-268 CNS, 91.1 µM. The TGI with SF-539 CNS was greater than 100 µM; in the experiment on SK-MEL-5 melanoma, 15.4 µM; in the experiment with TK-10 renal, greater than 100 µM; in the experiment on U251 CNS it was 43.1 µM.
With `CC1(C)OC(=O)C(C#N)=C1C[n+]1ccccc1`, the total growth inhibition concentration (TGI) with 786-0 renal, in the experiment with A498 renal, in the experiment on HT29 colon, in the experiment with M14 melanoma, in the experiment with NCI/ADR-RES ovarian and in the experiment on SF-268 CNS was greater than 10 µM in each case. For the same compound, the total growth inhibition concentration (TGI) in the experiment with SF-539 CNS, in the experiment with SK-MEL-5 melanoma, in the experiment with TK-10 renal and with U251 CNS was greater than 10 µM each time.
Consider `COC1=C(Cl)C(=O)c2c(O)ccc(O)c2C1=O`, for which the concentration for total growth inhibition (TGI) in the experiment with 786-0 renal is 0.864 µM; in the experiment on A498 renal it was 2.63 µM; in the experiment on HT29 colon, 11.8 µM; in the experiment on M14 melanoma, 1.28 µM; in the experiment on NCI/ADR-RES ovarian, 2.32 µM; in the experiment with SF-268 CNS it was 6.25 µM. Moreover, the concentration for total growth inhibition (TGI) was determined as 1.53 µM in the experiment with SF-539 CNS, 2.75 µM in the experiment on SK-MEL-5 melanoma, 2.4 µM with TK-10 renal and 11.9 µM with U251 CNS.
Regarding `NC(=O)c1cccc(OCC(O)CO)c1` (stereo unspecified), the TGI in the experiment with 786-0 renal, with A498 renal, in the experiment on HT29 colon, with M14 melanoma, in the experiment on NCI/ADR-RES ovarian and in the experiment with SF-268 CNS was greater than 100 µM in each case. The TGI with SF-539 CNS, with SK-MEL-5 melanoma, in the experiment on TK-10 renal and in the experiment with U251 CNS was greater than 100 µM each time.
As for `Cn1c(-c2ccccc2)c(/C=C/C2=[N+](C)c3ccccc3C2(C)C)c2ccccc21`, the GI50 is 2180 nM in the experiment with 786-0 renal; 1710 nM in the experiment with A498 renal; 711 nM with HT29 colon; 963 nM with M14 melanoma; 9.8 µM in the experiment with NCI/ADR-RES ovarian; 1320 nM in the experiment on SF-268 CNS. The GI50 in the experiment with SF-539 CNS is 2590 nM; in the experiment on SK-MEL-5 melanoma, 363 nM; in the experiment on TK-10 renal, 1350 nM; with U251 CNS, 460 nM. For the same compound, the total growth inhibition concentration (TGI) with 786-0 renal came out at 9.02 µM; with A498 renal, 10.9 µM; in the experiment with HT29 colon it was 7.59 µM; in the experiment on M14 melanoma, 3.4 µM; in the experiment with NCI/ADR-RES ovarian it was 72.3 µM; in the experiment with SF-268 CNS it was 12.9 µM. In addition, the concentration for total growth inhibition (TGI) in the experiment on SF-539 CNS stood at 14.2 µM; in the experiment with SK-MEL-5 melanoma it was 1.35 µM; with TK-10 renal it was 11.5 µM; in the experiment with U251 CNS it was 12.8 µM.

As a reminder, the GI50 is the concentration that inhibits growth by half. The TGI is the concentration giving total growth inhibition. High values mean lower sensitivity of the cells, low ones greater sensitivity of the cells.

The values above are taken from PubChem BioAssay (NCI).
